Results as given in the supplement of paper PMC7645387.
± gives the standard deviation of the averaged measurements.

Columns and labels:
Assay in all cases: cell viability relative to DMSO control; higher = less growth inhibition
Settings in all cases: treatment time: 6 days
HDFB = tested on: HDFB
Procedure: (§1)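 MCC cell lines (PeTa, MKL-1, MS-1, WaGa) and HDFB fibroblasts were treated for 6 days with serial dilutions (1e-11 to 1e-4 M) of single compounds in quadruplicate. Viability was read by CellTiter-Glo 2.0 and expressed as % of DMSO control.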

MKL-1 = tested on: MKL-1
Procedure: as §1

PeTa = tested on: PeTa
Procedure: as §1

WaGa = tested on: WaGa
Procedure: as §1

MS-1 = tested on: MS-1
Procedure: as §1

Compound	cell viability (HDFB; log10 concentration (M): -4)	cell viability (HDFB; log10 concentration (M): -5)	cell viability (HDFB; log10 concentration (M): -6)	cell viability (HDFB; log10 concentration (M): -7)	cell viability (HDFB; log10 concentration (M): -8)	cell viability (HDFB; log10 concentration (M): -9)	cell viability (HDFB; log10 concentration (M): -10)	cell viability (HDFB; log10 concentration (M): -11)	cell viability (MKL-1; log10 concentration (M): -4)	cell viability (MKL-1; log10 concentration (M): -5)	cell viability (MKL-1; log10 concentration (M): -6)	cell viability (MKL-1; log10 concentration (M): -7)	cell viability (MKL-1; log10 concentration (M): -8)	cell viability (MKL-1; log10 concentration (M): -9)	cell viability (MKL-1; log10 concentration (M): -10)	cell viability (MKL-1; log10 concentration (M): -11)	cell viability (PeTa; log10 concentration (M): -4)	cell viability (PeTa; log10 concentration (M): -5)	cell viability (PeTa; log10 concentration (M): -6)	cell viability (PeTa; log10 concentration (M): -7)	cell viability (PeTa; log10 concentration (M): -8)	cell viability (PeTa; log10 concentration (M): -9)	cell viability (PeTa; log10 concentration (M): -10)	cell viability (PeTa; log10 concentration (M): -11)	cell viability (WaGa; log10 concentration (M): -5)	cell viability (WaGa; log10 concentration (M): -6)	cell viability (WaGa; log10 concentration (M): -7)	cell viability (WaGa; log10 concentration (M): -8)	cell viability (WaGa; log10 concentration (M): -9)	cell viability (WaGa; log10 concentration (M): -10)	cell viability (WaGa; log10 concentration (M): -11)	cell viability (MS-1; log10 concentration (M): -5)	cell viability (MS-1; log10 concentration (M): -6)	cell viability (MS-1; log10 concentration (M): -7)	cell viability (MS-1; log10 concentration (M): -8)	cell viability (MS-1; log10 concentration (M): -9)	cell viability (MS-1; log10 concentration (M): -10)	cell viability (MS-1; log10 concentration (M): -11)
Cc1sc2c(c1C)C(c1ccc(Cl)cc1)=N[C@@H](CC(=O)OC(C)(C)C)c1nnc(C)n1-2 [(+)-JQ1]	0.0326 ± 0.017%	31.7 ± 3.8%	52 ± 8.2%	78.7 ± 1.5%	94.8 ± 1.7%	106 ± 11%	110 ± 14%	99 ± 7.9%	0.00849 ± 0.0057%	0.0389 ± 0.0064%	0.0944 ± 0.014%	20.7 ± 1.3%	66.8 ± 11%	89.2 ± 19%	94.1 ± 1.5%	93.9 ± 6.4%	0.0148 ± 0.0097%	3.47 ± 0.2%	7.04 ± 0.4%	21.7 ± 2.3%	94.3 ± 7.1%	96.7 ± 12%	87.4 ± 18%	100 ± 2.9%														
Cc1cc2c(cc1N1C(=O)c3cccc4c(CCCO)ccc(c34)C1=O)n(C)c(=O)n2C [BAY299]	31.2 ± 1.8%	78.5 ± 3.7%	74.1 ± 2.2%	92.1 ± 3.5%	100 ± 12%	97.5 ± 6.5%	100 ± 9.7%	99.3 ± 4%	0.0297 ± 0.015%	0.557 ± 0.05%	20.6 ± 2.8%	102 ± 15%	88.4 ± 4.3%	111 ± 13%	101 ± 15%	92.3 ± 18%	0.141 ± 0.02%	2.01 ± 0.19%	37.3 ± 4.9%	88.5 ± 20%	92.1 ± 19%	94.4 ± 17%	103 ± 18%	95.8 ± 12%														
Nc1ccccc1NC(=O)c1ccc(CNC(=O)OCc2cccnc2)cc1 [Entinostat]	0.192 ± 0.057%	11 ± 1.8%	33.8 ± 3.8%	94.1 ± 3.7%	102 ± 2.1%	102 ± 2.9%	104 ± 4.2%	104 ± 5.3%	0.0104 ± 0.0078%	0.0238 ± 0.013%	0.0511 ± 0.011%	75 ± 2.7%	102 ± 2.8%	102.6 ± 0.8%	101 ± 2.3%	102 ± 1.3%	0.0531 ± 0.016%	0.0605 ± 0.051%	0.0805 ± 0.058%	50.9 ± 3.8%	94.9 ± 2.8%	98.1 ± 5.3%	102 ± 2%	108 ± 4.7%														
O=C(NC[C@H](O)CN1CCc2ccccc2C1)c1ccnc(NC2CCC2)c1 [GSK591]	91.5 ± 3.5%	115 ± 7.4%	112 ± 5.1%	117 ± 5.5%	113 ± 3.1%	104 ± 2.8%	104 ± 2.1%	101 ± 2%	37.2 ± 2.9%	64.4 ± 12%	72.4 ± 13%	79.2 ± 16%	84.2 ± 21%	98.2 ± 17%	111 ± 28%	101 ± 22%	26.2 ± 2.9%	80.4 ± 3.4%	93.2 ± 3.1%	103 ± 3.5%	107 ± 7.2%	108 ± 6.4%	106 ± 7.8%	100 ± 7.8%														
c1ccc([C@@H]2C[C@H]2NC2CCNCC2)cc1 [GSK-LSD1]		97.43 ± 0.88%	98.5 ± 1.4%	98.6 ± 3.9%	99.4 ± 4.2%	100 ± 1.2%	105 ± 2.1%	103 ± 1.1%		56.1 ± 5.8%	62 ± 1.4%	60.1 ± 3.4%	67.2 ± 1.8%	87.9 ± 6.7%	98.1 ± 2.9%	98.7 ± 1.5%		28.8 ± 1.3%	23.1 ± 2.4%	21.3 ± 0.88%	28.1 ± 0.85%	67.8 ± 4.2%	101 ± 5.4%	99.1 ± 7.4%	45 ± 5.1%	49.8 ± 2.1%	44.1 ± 5.5%	55.4 ± 1.8%	76.6 ± 5.2%	95.6 ± 3%	97.6 ± 6.1%	45.9 ± 1.6%	45.4 ± 3.8%	47.6 ± 1.6%	47.1 ± 3.4%	74.9 ± 5.8%	93.1 ± 2.9%	94.7 ± 3.8%
CN1CCN(c2ccc(-c3cccc(CN4CCOCC4)c3)cc2NC(=O)c2c[nH]c(=O)cc2C(F)(F)F)CC1 [OICR9429]	42.7 ± 12%	83.7 ± 5.2%	97.6 ± 5.7%	105 ± 3.1%	117 ± 20%	113 ± 7.9%	108 ± 4.6%	104 ± 4.1%	0.438 ± 0.44%	57.6 ± 3.4%	79.2 ± 7.5%	87.1 ± 17%	80.2 ± 6.2%	85.8 ± 12%	89.9 ± 12%	85.7 ± 13%	49.1 ± 85%	96.8 ± 45%	103 ± 21%	111 ± 21%	119 ± 29%	126 ± 27%	122 ± 21%	126 ± 25%														
N[C@H]1CC[C@H](N[C@@H]2C[C@H]2c2ccccc2)CC1 [ORY-1001]		95.7 ± 2.2%	97.6 ± 3.9%	94.1 ± 2.7%	95.1 ± 2.2%	96.1 ± 1.3%	99.58 ± 0.98%	100 ± 1.3%		39.8 ± 5.9%	44.9 ± 3.6%	46.4 ± 4.5%	62.8 ± 28%	81 ± 16%	102 ± 3.2%	100 ± 4.5%		22.3 ± 2.8%	18.2 ± 3.2%	17.2 ± 0.89%	16.3 ± 1.2%	47.5 ± 17%	102 ± 6.4%	97.6 ± 4.8%	35.1 ± 2.3%	38.3 ± 4.8%	39.7 ± 5.1%	44 ± 5.8%	63.3 ± 1.2%	91.5 ± 1.2%	99.1 ± 0.86%	47.3 ± 2.2%	56.8 ± 1.2%	58.9 ± 5.5%	57.2 ± 2.4%	58.8 ± 1.9%	104 ± 3%	104 ± 16%
CCOC(=O)NCCCC(=O)NCCc1ccccc1 [Santacruzamate A]	41.6 ± 3.4%	103 ± 3.4%	103 ± 3.5%	99.8 ± 4.6%	101 ± 3.4%	101 ± 6.3%	99.3 ± 7.7%	100 ± 9.2%	34.9 ± 2.9%	106 ± 1.2%	105 ± 1.5%	104 ± 1.9%	103 ± 1.4%	102 ± 3.4%	99.3 ± 7.4%	100 ± 1.6%	45.5 ± 14%	104 ± 5.5%	105 ± 2.4%	99.9 ± 11%	105 ± 1.4%	103 ± 1.9%	105 ± 3.6%	103 ± 2.8%														
